Measurements reported in ChEMBL document CHEMBL4765241, “Identification and Preclinical Pharmacology of ((1 R,3 S)-1-Amino-3-(( S)-6-(2-methoxyphenethyl)-5,6,7,8-tetrahydronaphthalen-2-yl)cyclopentyl)methanol (BMS-986166): A Differentiated Sphingosine-1-phosphate Receptor 1 (S1P) Modulator Advanced into Clinical Trials” (J Med Chem, 2019).
Blank lines part the entries; values can stand above or below the compound they belong to.

Assays:
[1] = Drug metabolism in Lewis rat blood assessed as concentration of parent compound at 2 mg/kg, po measured at 4 hrs by LC-MS/MS analysis; assay type: ADME, organism-based; conditions: read-out: Ct
Rattus norvegicus [2] = assay: Drug metabolism in Lewis rat blood assessed as concentration of phosphate ester metabolite formation at 2 mg/kg, po measured at 4 hrs by LC-MS/MS analysis; conditions: in vivo
[3] = Half-life in Lewis rat at 2 mg/kg, po measured over 72 hrs by LC-MS/MS analysis; assay type: ADME, organism-based; conditions: in vivo
[4] = Pulmonary toxicity in Lewis rat assessed as elevation of BAL protein level at 2 mg/kg by advia1800 chemistry analyzer; assay type: organism-based; conditions: in vivo
[5] = Drug metabolism in Lewis rat blood assessed as concentration of parent compound at 2 mg/kg, po measured at 24 hrs by LC-MS/MS analysis; assay type: ADME, organism-based; conditions: read-out: Ct
[6] = Pulmonary toxicity in Lewis rat assessed as elevation of BAL protein level at 10 mg/kg by advia1800 chemistry analyzer; assay type: organism-based; conditions: in vivo
Rattus norvegicus [7] = assay: Reduction in circulating lymphocytes in Lewis rat blood assessed as effective dose after oral dosing measured at 24 hrs by hematology analyzer based analysis; assay type: functional
[8] = Ratio of drug metabolism in Lewis rat blood assessed as phosphate ester metabolite to parent drug at 2 mg/kg, po measured at 24 hrs by LC-MS/MS analysis; assay type: ADME, organism-based; conditions: in vivo
Rattus norvegicus [9] = assay: Reduction in circulating lymphocytes in Lewis rat blood at 2 mg/kg, po measured at 24 hrs by hematology analyzer based analysis; assay type: functional; design: scale not given: the % may be the effect or the level left
Rattus norvegicus [10] = assay: Reduction in circulating lymphocytes in Lewis rat blood at 2 mg/kg, po measured at 4 hrs by hematology analyzer based analysis; assay type: functional; design: scale not given: the % may be the effect or the level left
Mus musculus [11] = assay: Reduction in circulating lymphocytes in Balb/c mouse blood at 50 mg/kg, po measured at 24 hrs by hematology analyzer based analysis; assay type: functional; design: scale not given: the % may be the effect or the level left
[12] = Drug metabolism in Balb/c mouse blood assessed as concentration of parent compound at 1 mg/kg, po measured at 24 hrs by LC-MS/MS analysis; assay type: ADME, organism-based; conditions: Balb/c, blood, read-out: Ct
Mus musculus [13] = assay: Reduction in circulating lymphocytes in Balb/c mouse blood at 50 mg/kg, po measured at 4 hrs by hematology analyzer based analysis; assay type: functional; design: scale not given: the % may be the effect or the level left
[14] = Drug metabolism in Balb/c mouse blood assessed as concentration of phosphate ester metabolite formation at 50 mg/kg, po measured at 24 hrs by LC-MS/MS analysis; assay type: ADME, organism-based; conditions: in vivo
[15] = Drug metabolism in Balb/c mouse blood assessed as concentration of parent compound at 50 mg/kg, po measured at 24 hrs by LC-MS/MS analysis; assay type: ADME, organism-based; conditions: read-out: Ct
Mus musculus [16] = assay: Reduction in circulating lymphocytes in Balb/c mouse blood at 1 mg/kg, po measured at 4 hrs by hematology analyzer based analysis; assay type: functional; design: scale not given: the % may be the effect or the level left
[17] = Ratio of drug metabolism in Balb/c mouse blood assessed as phosphate ester metabolite to parent drug at 30 mg/kg, po measured at 24 hrs by LC-MS/MS analysis; conditions: in vivo
[18] = Drug metabolism in Balb/c mouse blood assessed as concentration of phosphate ester metabolite formation at 50 mg/kg, po measured at 4 hrs by LC-MS/MS analysis; assay type: ADME, organism-based; conditions: in vivo
[19] = Drug metabolism in Balb/c mouse blood assessed as concentration of parent compound at 1 mg/kg, po measured at 4 hrs by LC-MS/MS analysis; assay type: ADME, organism-based; conditions: Balb/c, blood, read-out: Ct
Mus musculus [20] = assay: Reduction in circulating lymphocytes in Balb/c mouse blood at 1 mg/kg, po measured at 24 hrs by hematology analyzer based analysis; assay type: functional; design: scale not given: the % may be the effect or the level left
[21] = Drug metabolism in Balb/c mouse blood assessed as concentration of parent compound at 50 mg/kg, po measured at 4 hrs by LC-MS/MS analysis; assay type: ADME, organism-based; conditions: read-out: Ct
[22] = Drug metabolism in Balb/c mouse blood assessed as concentration of phosphate ester metabolite formation at 1 mg/kg, po measured at 4 hrs by LC-MS/MS analysis; assay type: ADME, organism-based; conditions: in vivo
[23] = Drug metabolism in Balb/c mouse blood assessed as concentration of phosphate ester metabolite formation at 1 mg/kg, po measured at 24 hrs by LC-MS/MS analysis; assay type: ADME, organism-based; conditions: in vivo
[24] = Cardiotoxicity in human iPSC derived cardiomyocytes assessed as reduction in beating rate at 1 nM measured over 2 hrs by multi-electrode array relative to control; assay type: toxicity, cell-based; design: scale not given: the % may be the effect or the level left; conditions: stem cell-derived cardiomyocyte, 0.001 µM
[25] = Cardiotoxicity in human iPSC derived cardiomyocytes assessed as reduction in beating rate at 10 nM measured over 2 hrs by multi-electrode array relative to control; assay type: toxicity, cell-based; design: scale not given: the % may be the effect or the level left; conditions: stem cell-derived cardiomyocyte, 0.01 µM
[26] = Ratio of drug metabolism in Balb/c mouse blood assessed as phosphate ester metabolite to parent drug at 1 mg/kg, po measured at 24 hrs by LC-MS/MS analysis; assay type: ADME, organism-based; conditions: in vivo
[27] = Pulmonary toxicity in Lewis rat assessed as elevation of BAL protein level at 3 mg/kg by advia1800 chemistry analyzer; assay type: organism-based; conditions: in vivo
[28] = Drug metabolism in pH 7.4 Tris-HCl buffer assessed as amount of phosphate ester metabolite formation at […] in presence of sphingosine kinase 1,2 and Mg-ATP incubated for 30 mins by TLC based analysis relative to fingolimod

Structure (SMILES): COc1cccc(CC[C@H]2CCc3cc([C@H]4CC[C@](N)(COP(=O)(O)O)C4)ccc3C2)c1
- Activity [24]: 23%
- Activity [25]: 20%

Structure (SMILES): COc1ccccc1CC1CCc2cc([C@H]3CC[C@](N)(CO)C3)ccc2C1 (some centres not stated)
- Activity (Rattus norvegicus [9]): 13%
- Activity (Rattus norvegicus [10]): <10%

Structure (SMILES): COc1ccccc1CC[C@H]1CCc2cc([C@H]3CC[C@](N)(COP(=O)(O)O)C3)ccc2C1
- Activity [24]: 17%
- Activity [25]: 18%

Structure (SMILES): COc1ccc(CC[C@@H]2CCc3cc([C@H]4CC[C@](N)(COP(=O)(O)O)C4)ccc3C2)cc1
- Activity [24]: 27%
- Activity [25]: 35%

Structure (SMILES): COc1cccc(CC[C@@H]2CCc3cc([C@H]4CC[C@](N)(COP(=O)(O)O)C4)ccc3C2)c1
- Activity [24]: 15%
- Activity [25]: 31%

Structure (SMILES): N[C@]1(CO)CC[C@H](c2ccc3c(c2)CC[C@H](CCc2ccccc2)C3)C1
- concentration at 4 h [1]: 230 nM
- Drug metabolism (Rattus norvegicus [2]): 40 nM
- half-life [3]: > 75 h
- concentration at 24 h [5]: 300 nM
- Ratio [8]: 1.2
- Activity (Rattus norvegicus [9]): 78%
- Activity (Rattus norvegicus [10]): 11%

More lines, main results first:

- concentration at 4 h [1]: 90 nM
- Drug metabolism (Rattus norvegicus [2]): 40 nM
- half-life [3]: 20 h
- concentration at 24 h [5]: 50 nM
- Ratio [8]: 1
Structure (SMILES): COc1ccccc1CC[C@H]1CCc2cc([C@H]3CC[C@](N)(CO)C3)ccc2C1
- Activity [4]: 10.5 mg/dL
- Activity [6]: 29 mg/dL
- ED50 (Rattus norvegicus [7]): 0.05 mg/kg
- Activity (Rattus norvegicus [9]): 81%
- Activity (Rattus norvegicus [10]): 46%

- concentration at 24 h [12]: 5.6 nM
- Drug metabolism [14]: 750 nM
- concentration at 24 h [15]: 530 nM
- Ratio [17]: 1.4
- Drug metabolism [18]: 1100 nM
- concentration at 4 h [19]: 12 nM
- concentration at 4 h [21]: 2400 nM
- Drug metabolism [22]: 5.6 nM
- Drug metabolism ([23]; BLD = below limit of detection): Bld
Structure (SMILES): N[C@]1(CO)CC[C@H](c2ccc3c(c2)CC[C@@H](Cc2ccccc2)C3)C1
- Activity (Mus musculus [11]): 84%
- Activity (Mus musculus [13]): 82%
- Activity (Mus musculus [16]): <10%
- Activity (Mus musculus [20]): <10%

- concentration at 24 h [12]: 9 nM
- Drug metabolism [14]: 310 nM
- concentration at 24 h [15]: 300 nM
- Ratio [17]: 1
- Drug metabolism [18]: 480 nM
- concentration at 4 h [19]: 28 nM
- concentration at 4 h [21]: 1800 nM
- Drug metabolism [22]: 12 nM
- Drug metabolism [23]: 11 nM
- Ratio [26]: 1.2
Structure (SMILES): N[C@]1(CO)CC[C@H](c2ccc3c(c2)CC[C@H](Cc2ccccc2)C3)C1
- Activity (Mus musculus [11]): 78%
- Activity (Mus musculus [13]): 83%
- Activity (Mus musculus [16]): 21%
- Activity (Mus musculus [20]): 15%

- concentration at 4 h [1]: 90 nM
- Drug metabolism (Rattus norvegicus [2]): 160 nM
- half-life [3]: 31 h
- concentration at 24 h [5]: 80 nM
- Ratio [8]: 6.3
Structure (SMILES): COc1cccc(CC[C@@H]2CCc3cc([C@H]4CC[C@](N)(CO)C4)ccc3C2)c1
- Activity [6]: 12.7 mg/dL
- ED50 (Rattus norvegicus [7]): 0.05 mg/kg
- Activity (Rattus norvegicus [9]): 84%
- Activity [27]: 10 mg/dL
- Activity (Rattus norvegicus [10]): 69%

- concentration at 4 h [1]: 120 nM
- Drug metabolism (Rattus norvegicus [2]): 30 nM
- half-life [3]: 49 h
- concentration at 24 h [5]: 210 nM
- Ratio [8]: 1.1
Structure (SMILES): COc1cccc(CC[C@H]2CCc3cc([C@H]4CC[C@](N)(CO)C4)ccc3C2)c1
- Activity [4]: 10 mg/dL
- Activity [6]: 17.5 mg/dL
- ED50 (Rattus norvegicus [7]): 0.05 mg/kg
- Activity (Rattus norvegicus [9]): 85%
- Activity (Rattus norvegicus [10]): 44%

- Drug metabolism [28]: 3%
Structure (SMILES): COc1ccnc(CC[C@H]2CCc3cc([C@H]4CC[C@](N)(CO)C4)ccc3C2)c1

- Drug metabolism [28]: 6%
Structure (SMILES): Cn1cc(CC[C@@H]2CCc3cc([C@H]4CC[C@](N)(CO)C4)ccc3C2)cn1

- Drug metabolism [28]: 8%
Structure (SMILES): Cn1ccc(CC[C@@H]2CCc3cc([C@H]4CC[C@](N)(CO)C4)ccc3C2)n1
